From patent publication US8227498B2, “Inhibitors of glutaminyl cyclase” (Probiodrug AG, priority 2007, dated 2012)

Biological target: glutaminyl cyclase (QC) (Homo sapiens, UniProt Q16769)
Test: QC inhibitor assay (fluorometric/spectrophotometric QC activity assays with inhibitory compound added)
Experimental: All measurements were performed with a BioAssay Reader HTS-7000Plus for microplates (Perkin Elmer) at 30° C. QC activity was evaluated fluorometrically using H-Gln-βNA. The samples consisted of 0.2 mM fluorogenic substrate, 0.25 U pyroglutamyl aminopeptidase (Unizyme, Hørsholm, Denmark) in 0.2 M Tris/HCl, pH 8.0 containing 20 mM EDTA and an appropriately diluted aliquot of QC in a final volume of 250 μl. Excitation/emission wavelengths were 320/410 nm. The assay reactions were initiated by addition of glutaminyl cyclase. QC activity was determined from a standard curve of β-naphthylamine under assay conditions. One unit is defined as the amount of QC catalyzing the formation of 1 μmol pGlu-MNA from H-Gln-βNA per minute under the described conditions.
In a second fluorometric assay, QC was activity determined using H-Gln-AMC as substrate. Reactions were carried out at 30° C. utilizing the NOVOStar reader for microplates (BMG labtechnologies). The samples consisted of varying concentrations of the fluorogenic substrate, 0.1 U pyroglutamyl aminopeptidase (Qiagen) in 0.05 M Tris/HCl, pH 8.0 containing 5 mM EDTA and an appropriately diluted aliquot of QC in a final volume of 250 μl. Excitation/emission wavelengths were 380/460 nm. The assay reactions were initiated by addition of glutaminyl cyclase. […] The kinetic data were evaluated using GraFit sofware.
This novel assay was used to determine the kinetic parameters for most of the QC substrates. […] Samples consisted of the respective QC substrate, 0.3 mM NADH, 14 mM α-Ketoglutaric acid and 30 U/ml glutamate dehydrogenase in a final volume of 250 μl.
The initial velocities were evaluated and the enzymatic activity was determined from a standard curve of ammonia under assay conditions. All samples were measured at 30° C., using either the [sequence]luor Plus or the Sunrise (both from TECAN) reader for microplates. Kinetic data was evaluated using GraFit software.
For inhibitor testing, the sample composition was the same as described above, except of the putative inhibitory compound added. For a rapid test of QC-inhibition, samples contained 4 mM of the respective inhibitor and a substrate concentration at 1 KM. For detailed investigations of the inhibition and determination of Ki-values, influence of the inhibitor on the auxiliary enzymes was investigated first. […] The inhibitory constant was evaluated by fitting the set of progress curves to the general equation for competitive inhibition using GraFit software.

Chain of glutaminyl cyclase (QC) (Q16769 29-361): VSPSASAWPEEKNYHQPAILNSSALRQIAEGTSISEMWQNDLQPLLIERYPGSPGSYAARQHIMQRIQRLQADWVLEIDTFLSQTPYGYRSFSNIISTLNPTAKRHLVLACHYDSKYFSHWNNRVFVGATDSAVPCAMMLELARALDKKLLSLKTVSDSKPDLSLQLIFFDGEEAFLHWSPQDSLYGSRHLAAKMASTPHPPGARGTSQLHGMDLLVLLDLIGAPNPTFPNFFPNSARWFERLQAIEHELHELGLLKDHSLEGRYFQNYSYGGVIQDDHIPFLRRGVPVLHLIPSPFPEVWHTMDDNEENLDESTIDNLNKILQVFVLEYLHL

Structure (SMILES)	IC50	Ki
Cc1cncn1CCCN/C(=N\C#N)Nc1cccc2ccccc12 [Example 11, (3-(5-methyl-1H-imidazol-1-yl)propyl)-2-cyano-3-(naphthalen-1-yl)guanidine]	610 nM	103 nM
Cc1cn(CCCN/C(=N/C#N)Nc2ccc(C#N)cc2)cn1 [Example 26, 2-cyano(4-cyanophenyl)-3-(3-(4-methyl-1H-imidazol-1-yl)propyl)guanidine]	30100 nM	
CCc1ccc(N/C(=N/C#N)NCCCn2cnc(C)c2)cc1 [Example 22, 2-cyano(4-ethylphenyl)-3-(3-(4-methyl-1H-imidazol-1-yl)propyl)guanidine]	13900 nM	2370 nM
Cc1cc(C)c(N/C(=N/C#N)NCCCn2cncc2C)c(C)c1 [Example 8, (3-(5-methyl-1H-imidazol-1-yl)propyl)-2-cyano-3-mesitylguanidine]	624 nM	106 nM
Cc1cn(CCCN/C(=N/C#N)Nc2ccc3ccccc3c2)cn1 [Example 30, 2-cyano(3-(4-methyl-1H-imidazol-1-yl)propyl)-3-(naphthalen-2-yl)guanidine]	12400 nM	1870 nM
Cc1cc(C)c(N/C(=N/C#N)NCCCn2cnc(C)c2)c(C)c1 [Example 20, 2-cyano(mesityl)-3-(3-(4-methyl-1H-imidazol-1-yl)propyl)guanidine]	8500 nM	1280 nM
CCOc1ccc(N/C(=N\C#N)NCCCn2cncc2C)cc1 [Example 6, 2-cyano(4-ethoxyphenyl)-3-(3-(5-methyl-1H-imidazol-1-yl)propyl)guanidine]	1090 nM	91 nM
Cc1cncn1CCCN/C(=N/C#N)Nc1ccc(C#N)cc1 [Example 4, 2-cyano(4-cyanophenyl)-3-(3-(5-methyl-1H-imidazol-1-yl)propyl)guanidine]	1050 nM	186 nM
COc1ccc(N/C(=N/C#N)NCCCn2cncc2C)cc1 [Example 15, 2-cyano(4-methoxyphenyl)-3-(3-(5-methyl-1H-imidazol-1-yl)propyl)guanidine]	790 nM	74 nM
COc1cc(N/C(=N/C#N)NCCCn2cncc2C)cc(OC)c1 [Example 16, 2-cyano(3,5-dimethoxyphenyl)-3-(3-(5-methyl-1H-imidazol-1-yl)propyl)guanidine]	726 nM	125 nM
Cc1cn(CCCN/C(=N/C#N)Nc2ccc(-c3ccccc3)cc2)cn1 [Example 29, 2-cyano-1-[3-(4-methyl-1H-imidazol-1-yl)propyl]-4-phenylbenzene-1-guanidine]	10400 nM	1580 nM
COc1cc(N/C(=N\C#N)NCCCn2cnc(C)c2)cc(OC)c1 [Example 18, 2-cyano(3,5-dimethoxyphenyl)-3-(3-(4-methyl-1H-imidazol-1-yl)propyl)guanidine]	12300 nM	
Cc1cncn1CCCN/C(=N\C#N)Nc1ccc2nsnc2c1 [Example 12, (3-(5-methyl-1H-imidazol-1-yl)propyl)-3-(benzo[c][1,2,5]thiadiazol-6-yl)-2-cyanoguanidine]	1340 nM	132 nM

Next, values leading:

IC50	Ki	Structure (SMILES)
14400 nM	2030 nM	COc1ccc(N/C(=N\C#N)NCCCn2cnc(C)c2)cc1 [Example 28, 2-cyano(4-methoxyphenyl)-3-(3-(4-methyl-1H-imidazol-1-yl)propyl)guanidine]
590 nM	110 nM	Cc1cncn1CCCN/C(=N\C#N)Nc1ccc2c(c1)OCO2 [Example 14, (benzo[d][1,3]dioxol-6-yl)-2-cyano-3-(3-(5-methyl-1H-imidazol-1-yl)propyl)guanidine]
17100 nM	2600 nM	Cc1cn(CCCN/C(=N/C#N)Nc2ccc(Cl)c(Cl)c2)cn1 [Example 27, (3,4-dichlorophenyl)-2-cyano-3-(3-(4-methyl-1H-imidazol-1-yl)propyl)guanidine]
13800 nM	1690 nM	Cc1cn(CCCN/C(=N\C#N)Nc2cccc3ccccc23)cn1 [Example 23, 2-cyano(3-(4-methyl-1H-imidazol-1-yl)propyl)-3-(naphthalen-1-yl)guanidine]
620 nM	170 nM	CCc1ccc(N/C(=N/C#N)NCCCn2cncc2C)cc1 [Example 1, 2-cyano(4-ethylphenyl)-3-(3-(5-methyl-1H-imidazol-1-yl)propyl)guanidine]
550 nM	91 nM	Cc1cncn1CCCN/C(=N\C#N)Nc1ccc(C(C)C)cc1 [Example 2]
5690 nM	1330 nM	CCOc1ccc(N/C(=N\C#N)NCCCn2cnc(C)c2)cc1 [Example 17, 2-cyano(4-ethoxyphenyl)-3-(3-(4-methyl-1H-imidazol-1-yl)propyl)guanidine]
12200 nM	2210 nM	Cc1cn(CCCN/C(=N/C#N)Nc2ccc3nsnc3c2)cn1 [Example 24, (benzo[c][1,2,5]thiadiazol-6-yl)-2-cyano-3-(3-(4-methyl-1H-imidazol-1-yl)propyl)guanidine]
14900 nM	2310 nM	Cc1cn(CCCN/C(=N\C#N)Nc2ccc(C(C)C)cc2)cn1 [Example 21, 2-cyano(4-isopropylphenyl)-3-(3-(4-methyl-1H-imidazol-1-yl)propyl)guanidine]
1090 nM	94 nM	Cc1cncn1CCCN/C(=N\C#N)Nc1ccc2ccccc2c1 [Example 10, (3-(5-methyl-1H-imidazol-1-yl)propyl)-2-cyano-3-(naphthalen-2-yl)guanidine]
